# Measurements taken from patent US10611733B2, “Quinazolinone analogs and use of quinazolinone analogs for treating or preventing certain viral infections” (priority 2011, dated 2020).
# Read-outs that look alike come from different tables or passages of the source.
# Experiments:
# [1] = system: HCV Con 1b (Replicon); assay: HCV Con 1b (Replicon) RNA end-point; assay type: cell-based, Hepatitis C Virus
# Procedure: (§1) The reduction in HCV was determined with two assays using viral RNA endpoints. […] This cell line expresses a subgenomic section of the HCV genome containing NS2a, NS2b, NS3a, NS3b, NS4a, NS4b, NS5a and NS5b.
# [2] = HCV Con 1b (Replicon) RNA end-point; assay type: cell-based, Hepatitis C Virus; conditions: HCV Con 1b subgenomic replicon cell line; HCV Con 1b replicon, RNA end-point; read-out: TC50 (the source's name)
# Procedure: as §1
# [3] = system: WNV; assay: WNV antiviral assay; assay type: cell-based, West Nile Virus; conditions: West Nile virus
# From the text: (§2) The use of N-(2,3-dihydro-1H-inden-5-yl)-2-(4-oxo-3-phenyl-3,4-dihydroquinazolin-2-yl)thio) acetamide, a compound employed according to the present disclosure, for treating West Nile Virus has been disclosed. For example, please see Chung et al. A Cell Based Assay for the Identification of Lead Compounds with Anti-Viral Activity Against West Nile Virus, Probe Reports from the NIH Molecular Libraries Program[Internet]. Bethesda (Md.): National Center for Biotechnology Information (US); 2010-2010 Feb. 27 [updated 2010 Oct. 4], PMID: 21433390 [PubMed].
# [4] = WNV antiviral assay; assay type: cell-based, West Nile Virus; conditions: read-out: TC50 (the source's name)
# From the text: as §2
# [5] = HCV Con1b (Replicon) Luciferase end-point; assay type: cell-based, Hepatitis C Virus; conditions: HCV Con1b subgenomic replicon cell line, read-out: TC50 (the source's name)
# [6] = system: HCV Con1b (Replicon); assay: HCV Con1b (Replicon) Luciferase end-point; assay type: cell-based, Hepatitis C Virus; conditions: for CC50: read-out: TC50 (the source's name)
# [7] = JEV cell based virus CPE reduction assay; set-up: species or system Japanese Encephalitis Virus; conditions: read-out: TC50 (the source's name)
# From the text: as §2
# [8] = system: JEV; assay: JEV cell based virus CPE reduction assay; set-up: species or system Japanese Encephalitis Virus; conditions: for CC50: read-out: TC50 (the source's name)
# From the text: as §2
compound,measurement,setting,value
O=C(CSc1nc2ccccc2c(=O)n1-c1ccccc1)Nc1ccc2c(c1)CCC2 [Example C1],IC50,"[1]; Hepatitis C virus, HCV Con 1b replicon, RNA end-point",5 to 25 µM
same,activity against Hepatitis C Virus,[1]; text statement referring to Table 1,activity was observed
same,CC50,[2],≥ 100 µM
same,IC50,[3],5 to 25 µM
same,CC50,[4],≥ 100 µM
"Cc1csc(NC(=O)CSc2nc3ccccc3c(=O)n2-c2ccc(Cl)c(Cl)c2)n1 [Example C8, 2-(3-(3,4-dichlorophenyl)-4-oxo-3,4-dihydroquinazolin-2-ylthio)-N-(4-methylthiazol-2-yl)acetamide]",CC50,[5],≥ 100 µM
same,IC50,[6]; Hepatitis C virus,1 to 5 µM
same,CC50,[7],≥ 100 µM
same,IC50,[8]; Japanese encephalitis virus,5 to 25 µM
"O=C(CSc1nc2cccc(F)c2c(=O)n1-c1ccccc1)Nc1ccc2c(c1)CCC2 [Example C15, 2-(5-fluoro-4-oxo-3-phenyl(3-hydroquinazolin-2-ylthio))-N-indan-5-ylacetamide]",IC50,"[1]; HCV Con 1b replicon, RNA end-point",1 to 5 µM
same,CC50,"[1]; HCV Con 1b replicon, RNA end-point, read-out: TC50 (the source's name)",≥ 100 µM
same,IC50,[8],5 to 25 µM
same,CC50,[8],≥ 100 µM
"COc1cccc2c(=O)n(-c3ccccc3)c(SCC(=O)Nc3ccc4c(c3)CCC4)nc12 [Example C17, N-indan-5-yl-2-(8-methoxy-4-oxo-3-phenyl(3-hydroquinazolin-2-ylthio))acetamide]",IC50,[6],1 to 5 µM
same,CC50,[6],≥ 100 µM
same,IC50,[8],5 to 25 µM
same,CC50,[8],≥ 100 µM
"Cc1csc(NC(=O)CSc2nc3ccccc3c(=O)n2-c2ccc(Cl)c(Cl)c2)n1 [Example C24, 2-[3-(3,4-dichlorophenyl)-4-oxo(3-hydroquinazolin-2-ylthio)]-N-(4-methyl(1,3-thiazol-2-yl))acetamide]",IC50,[6],1 to 5 µM
same,CC50,[6],≥ 100 µM
same,IC50,[8],5 to 25 µM
same,CC50,[8],≥ 100 µM
